Where two headings read alike, the source gives them in different places.
Experiments:
[1] = biological target: delta opioid receptor (UniProt P33533); test: Radioligand competitive binding, [3H]DADLE
[2] = biological target: mu opioid receptor (Cavia porcellus, UniProt A0ACM8Q262); test: Inhibition of DAMGO-stimulated [35S]GTP-γ-S binding in guinea pig caudate; assay type: biochemical; conditions: read-out: Apparent Functional Ki (nM ± SD) μ DAMGO
[3] = biological target: T1, delta opioid receptor (Cavia porcellus, UniProt A0A286XTF2); conditions: read-out: Apparent Functional Ki (nM ± SD) δ DADLE; [35S]GTP-γ-S, guinea pig caudate, SNC-80-stimulated (footnote b)
[4] = biological target: mu opioid receptor (UniProt P33535); test: Radioligand competitive binding, [3H]DAMGO; conditions: read-out: K1 (nM ± SD) μ [3H]DAMGO
[5] = biological target: T1, delta opioid receptor; test: biochemical
[6] = biological target: T2, kappa opioid receptor (Cavia porcellus, UniProt P41144); test: Inhibition of U69,593-stimulated [35S]GTP-γ-S binding in guinea pig caudate
[7] = biological target: cloned human kappa opioid receptor (Homo sapiens, UniProt P41145); test: Inhibition of U69,593-stimulated [35S]GTP-γ-S binding in cloned human opioid receptors; conditions: cloned human functional assay versus binding assay
[8] = biological target: T2, kappa opioid receptor; test: Radioligand competitive binding, [3H]U69,593; conditions: for Ki: read-out: K1 (nM ± SD) κ [3H]U69,593, radioligand binding, [3H]U69,593
[9] = tested on: kappa opioid receptor; test: Radioligand competitive binding, [3H]U69,593; conditions: ratio of binding Ki values, Table 1
[10] = read-out: K1 (nM ± SD) δ [3H]DADLE; radioligand binding, [3H]DADLE
[11] = radioligand binding, [3H]DADLE; read-out: K1 (nM ± SD) δ [3H]DADLE

| Structure (SMILES) | Ki [1, 10] [nM] | Ki [4] [nM] | Ki [1, 11] [nM] | Ki [8] [nM] | δ/κ [9] | μ/κ [9] | further results |
| --- | --- | --- | --- | --- | --- | --- | --- |
| Oc1ccc2c3c1O[C@H]1c4[nH]c5c(c4C[C@@]4(O)[C@@H](C2)N(CC2CC2)CC[C@]314)C[C@@]1(O)[C@H]2Cc3ccc(O)c4c3[C@@]1(CCN2CC1CC1)[C@H]5O4 [6, nor-BNI, nor-binaltorphimine, reference compound] | 86 | – | – | – | – | – | Ki [2]: 16.7 nM; Ki [3]: 10.2 nM |
| CC(C)[C@@H](CN1CC[C@@](C)(c2cccc(O)c2)[C@@H](C)C1)NC(=O)[C@H]1Cc2ccc(O)cc2CN1 [Compound 14, (3R)-7-Hydroxy-N-((1S)-1-{[(3R,4R)-4-(3-hydroxyphenyl)-3,4-dimethyl-1-piperidinyl]methyl}-2-methylpropyl)-1,2,3,4-tetrahydro-3-isoquinolinecarboxamide] | – | 3.73 ± 0.17 | 301 ± 50 | – | – | – | Ki [2]: 2.16 ± 0.75 nM; Ki [5]: > 300 nM; Ki [6]: 0.02 nM; improvement in kappa receptor Ki compared with the binding assay [7]: 53 fold |
| CC(C)[C@@H](CN1CC[C@@](C)(c2cccc(O)c2)[C@@H](C)C1)NC(=O)[C@@H]1Cc2ccc(O)cc2CN1 [Compound 15, (3S)-7-Hydroxy-N-((1S)-1-{[(3R,4R)-4-(3-hydroxyphenyl)-3,4-dimethyl-1-piperidinyl]methyl}-2-methylpropyl)-1,2,3,4-tetrahydro-3-isoquinolinecarboxamide] | – | 596 ± 29 | > 4900 | 9.8 ± 1.6 | – | – | – |
| CC(C)[C@@H](CN1CC[C@@](C)(c2cccc(O)c2)[C@@H](C)C1)NC(=O)[C@H]1Cc2ccccc2CN1 [Compound 16, (3R)-N-((1S)-1-{[(3R,4R)-4-(3-Hydroxyphenyl)-3,4-dimethyl-1-piperidinyl]methyl}-2-methylpropyl)-1,2,3,4-tetrahydro-3-isoquinolinecarboxamide] | > 4900 | 775 ± 75 | – | 2.1 | >2333 | 369 | – |
| CC(C)[C@@H](CN1CC[C@@](C)(c2cccc(O)c2)[C@@H](C)C1)NC(=O)[C@H]1Cc2ccc(O)cc2CN1C(=O)CN(C)C [Compound 17, (3R)-2-(N,N-Dimethylglycyl)-7-hydroxy-N-((1S)-1-{[(3R,4R)-4-(3-hydroxyphenyl)-3,4-dimethyl-1-piperidinyl]methyl}-2-methylpropyl)-1,2,3,4-tetrahydro-3-isoquinolinecarboxamide] | > 3400 | 164 ± 10.5 | – | 15 ± 1.2 | >219 | 11 | – |
| CC(C)[C@@H](CN1CC[C@@](C)(c2cccc(O)c2)[C@@H](C)C1)NC(=O)[C@@H]1Cc2ccc(O)cc2CN1C [Compound 18, (3S)-7-Hydroxy-N-((1S)-1-{[(3R,4R)-4-(3-hydroxyphenyl)-3,4-dimethyl-1-piperidinyl]methyl}-2-methylpropyl)-2-methyl-1,2,3,4-tetrahydro-3-isoquinolinecarboxamide] | 616 ± 59 | 37 ± 1.4 | – | – | 11622 | 700 | potency relative to the reference compound nor-BNI (6) ([8]; opioid receptor binding data, kappa): 20 fold |
| CC(C)[C@@H](CN1CC[C@@](C)(c2cccc(O)c2)[C@@H](C)C1)NC[C@H]1Cc2ccc(O)cc2CN1 [Compound 19, (3R)-3-{[((1S)-1-{[(3R,4R)-4-(3-Hydroxyphenyl)-3,4-dimethyl-1-piperidinyl]methyl}-2-methylpropyl)amino]methyl}-1,2,3,4-tetrahydro-7-isoquinolinol] | – | – | – | 0.63 ± 0.05 | – | – | Ki ([1]; read-out: K1 (nM ± SD) δ [3H]DADLE): 5570 ± 713 nM |
| CC(C)[C@@H](CN1CC[C@@](C)(c2cccc(O)c2)[C@@H](C)C1)NC[C@H]1Cc2ccc(O)cc2CN1C [Compound 20, (3R)-3-{[((1S)-1-{[(3R,4R)-4-(3-Hydroxyphenyl)-3,4-dimethyl-1-piperidinyl]methyl}-2-methylpropyl)amino]methyl}-2-methyl-1,2,3,4-tetrahydro-7-isoquinolinol] | – | 59 ± 2.5 | 2230 ± 187 | 0.55 ± 0.04 | 4056 | 107 | – |
| CC(C)[C@@H](CN1CC[C@](C)(c2cccc(O)c2)[C@H](C)C1)NC(=O)[C@H]1Cc2ccc(O)cc2CN1 [Compound 21, (3R)-7-Hydroxy-N-((1S)-1-{[(3S,4S)-4-(3-hydroxyphenyl)-3,4-dimethyl-1-piperidinyl]methyl}-2-methylpropyl)-1,2,3,4-tetrahydro-3-isoquinolinecarboxamide] | – | 138 ± 8 | 144 ± 15 | 17.5 ± 2.5 | – | – | – |
